Experimental data reported in patent US5681738A, “Use of 10-oxo-trans-8-decenoic acid in mushroom cultivation” (The Penn State Research Foundation, priority 1992, dated 1997).

Assay: Dissociation constant by titration with ethanolic NaOH
Assay type: physicochemical
Settings: water; aqueous solution; Henderson-Hasselbalch; standard deviation 10^0.04; read-out: dissociation constant (Ka)
Description: The purity of ODA was then determined by titration with ethanolic NaOH. The molarity of NaOH was standardized by anhydrous oxalic acid which was dried overnight at 100° C. Three points in the titration curve, with the ratios of [A-] to [HA] equal to 1/3, 1/1 and 3/1, respectively, were chosen for the calculation of the dissociation constant (Ka) of ODA based on the Henderson-Hasselbalch equation (Mathews et al., (1990)): […]

`O=C/C=C/CCCCCCC(=O)O` [ODA, 10-oxo-trans-8-decenoic acid] showed a pKa of 4.68.
